For one series, the system named is K562 cells. As to the kind of experiment: Erythroid differentiation of K562 cells by benzidine staining. The series is classed as cell-based, human. Conditions: optimized concentration, mean ± SD of six experiments. As for the experimental part:
The biological activity of the compounds of the present application was evaluated by examining the capacity to modulate the expression of γ-globin genes in the human K562 cell line, which is capable of differentiating in the erythroid manner by expressing genes for γ-globin if treated with modifiers of the biological response that are suitable for the purpose (Bianchi et al, J. Haematol., 113, 4, p. 951-961, 2001). The human K562 cells were cultured in RPMI 1640 medium (Sigma, St Louis, Mo., USA) supplemented with 10% foetal bovine serum (FBS; Analitical de Mori, Milan, Italy), 100 units/mL penicillin and 100 μg/mL streptomycin. Cell growth was determined according to cell number/ml, using a cell counter (Coulter Electronics, Hialeah, Fla., USA). For experiments, K562 cell cultures were initiated at 3×10^4/mL and the chemical inducers at the indicated concentrations added. Following 3-5 days incubation without a medium change erythroid differentiation was determined by staining the cells in a solution containing 0.2% benzidine in 0.5 M glacial acetic acid, 10% H2O2. Benzidine positivity indicates the presence of intracellular Hb.
The erythroid differentiation of K562 cells was investigated following treatment with selected compounds of the invention. The effect on cell proliferation was first determined for all tested molecules by culture of K562 cells in the presence of increasing concentration of the compounds. The cell number per sample was then determined after 3, 4 and 5 days. The IC50 values reported in Table 3 for the antiproliferative effect were calculated from the concentration of the compounds necessary to decrease the cell number to 50% of the values obtained in control untreated K562 cell cultures, after a 5 days culture period. Erythroid differentiation was measured by benzidine staining after 5, 6 and 7 days of cell culture and by quantitative reverse transcriptase polymerase-chain reaction (RT-qPCR) to quantify the expression of γ-globin mRNA. Different concentrations of tested compounds were employed because of their differing antiproliferative effects; accordingly, concentrations were chosen to maximize the erythroid induction effect without extensive reduction of cell viability. In Table 3 the % of benzidine positive cells and the increase in γ-globin mRNA assayed by RT-qPCR after 6 days of culture period are reported.
Table 4 reports induction of erythroid differentiation in K562 cells treated with an optimized concentration of the compound 2 in comparison with known inducers. Compound 2 is able to stimulate an increase of the proportion of benzidine-positive (hemoglobin producing) K562 cells. This is associated with an increase of the expression of γ-globin mRNA.

The subject of series [1] is human γ-globin promoter (EGFP reporter) in K562 cells. As to the kind of experiment: HbF activation assay on K562 (EGFP/RFP reporter model system for screening of inducers of fetal hemoglobin). The series is classed as cell-based. Conditions: 60 hours. A digest of the protocol: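 K562 cells stably carrying EGFP under the human γ-globin promoter and far-red FP under the β-globin promoter, with the LCR, were seeded at 1000 cells/well. Cells were exposed to compounds (0.25% DMSO final) for 60 h at 37 °C. Fluorescence was read by plate cytometry, normalized to Hoechst nuclei count, which also indicated proliferation or death.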

Another series deals with HDAC in Hela cells. The series is described as follows: HDAC Hela Cell Based assay.
The next series concerns the target T1, HDAC1 (Homo sapiens, UniProt Q13547).
T1 construct: made in house
The series is described as follows: HDAC1 assay (Fluor-de-Lys fluorescent deacetylase assay). The format is biochemical. Conditions: read-out: hHDAC IC50. A digest of the protocol: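 Serially diluted compounds were pre-incubated with purified FLAG-tagged HDAC1 (1-2 nM final; from transfected HeLa cells) or HeLa nuclear extract, then given the Fluor-de-Lys acetyl-lysine substrate/developer; deacetylation read as fluorescence. Reactions were stopped with TSA (3 uM final).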

A short description of series [2]: Rat PK studies, oral dose. The series is classed as in vivo, Sprague-Dawley rats. The following applies: male, Sprague-Dawley, plasma, po 10 mg/kg. As to the method:
Rats Male Sprague-Dawley rats (250-350 g) were used for the absorption disposition studies. In each rat an indwelling cannula was implanted in the right jugular vein for blood sampling. The surgery was performed under light anaesthesia (Ketamine-Xilazine (85 mg/kg and 2.5 mg/kg respectively i.m.) one day prior the experiment). During the kinetic study, all animals were housed individually in plastic metabolism cages, and were unrestrained throughout the experiment. Compounds (6 mg/mL) were dissolved in 20% DMSO/60% PEG400/20% water for intravenous administration, and dissolved or suspended in 1% methylcellulose for oral administration (2 mg/ml). After an overnight fast, the rats received an i.v. (via caudal vein) or an oral dose of the compound. Blood samples were collected at different times point after dosing. Plasma was separated immediately after blood sampling by centrifugation, and the plasma samples were kept frozen (−20° C.) until assayed by LC/MS/MS.
Analytical procedures: Plasma samples were extracted using Liquid Handling Robot MultiProbe Packard by protein precipitation with acetonitrile. Then the samples were centrifuged (3000 rpm×15 min at 4° C.) and the supernatant transferred and dried under nitrogen. The samples were reconstituted in water/acetonitrile 90/10 and then injected directly into an HPLC column. Sample analyses were performed using a an API 3000 or/and API 2000 or/and API 4000 Mass Spectrometer interfaced via the Turbo Ion Spray (ESI)/APCI to an LC system consisting of an HTS PAL CTC autosampler and an Agilen HP 1100 Binary Pump. The results are calculated using Analyst Software linear regression with 1/x*x weighting. The Assay Precision was calculated for the Quality Controls by Watson Lims database.
Pharmacokinetic Analysis: The plasma clearance (CLp) of the compounds were calculated (using Watson PK program) as the dose divided by the area under the plasma concentration-time curve from time zero to infinity (AUC0-∞). The apparent half-life was estimated from the slope of the terminal phase of the log plasma concentration-time data. The volume of distribution (Vdss) was determined using the following noncompartmental method: Vdss=(Dose IV×AUMC)/(AUC0-∞)2
where AUMC is the total area under the first moment of the drug concentration time curve from time zero to infinity. Bioavailability was estimated as the AUC0-∞ ratio following oral and intravenous administration, normalized for differences in dose.

Series [3] is described as follows: Intrinsic clearance in pooled rat liver microsomes. The format is in vitro ADME. Conditions: pH 7.4. As for the experimental part:
Assays were performed in presence of 0.5 mg/ml of microsomal protein, with a NADPH-generating system (1 mM NADP, 2.5 mM glucose 6-phosphate and 2 U/ml glucose 6-phosphate dehydrogenase) in 100 mM potassium phosphate buffer containing 3.3 mM MgCl2 (pH 7.4). Tested compounds were stored in 10 mM DMSO solution and incubated at 1 μM final concentration (final DMSO concentration in incubation less than 0.1%). Microsomes and substrates were preincubated at 37° C. for 5 min and then the enzymatic reactions were initiated by the addition of cofactors and incubated at 37° C. for up to 90 min. Incubations were terminated by the addition of an equivalent volume of cold acetonitrile containing I.S. Control incubations, where the substrate was incubated in the same buffer system containing pRLM without the NADPH-generating system, were also run.

Series [4] in a line: Intrinsic clearance in pooled human liver microsomes. The series is classed as in vitro ADME. The following applies: pH 7.4. On the technique in general: Liver microsomes are a subcellular fraction often used to study metabolism.
Series [5] in a line: Mouse in vivo pharmacokinetics, oral dose. The following applies: plasma. As for the experimental part: Compounds of the invention were evaluated in in vitro and in vivo pharmacokinetic studies.
A short description of series [6]: Intrinsic clearance in pooled mouse liver microsomes. The format is in vitro ADME. The following applies: pH 7.4.
The next series deals with human γ-globin gene. The following applies: transgenic mice; Cao, H Exp. Hematol. 2005; cited from earlier work.

Bounds are passed on as bounds.

A word on the EC50: it is the concentration needed to bring the measured effect to its halfway point. A lower EC50 goes with higher potency in that assay. Broadly, the IC50 is the concentration needed to halve the response being measured. What is called AUC is the area under the concentration-time curve, a measure of exposure. A high value points to high exposure. What is called Cmax is the peak of the concentration-time curve. By microsomal CLint is commonly meant the capacity of the preparation to metabolise the compound, expressed as a volume cleared per time. The low end stands for greater metabolic stability, the high end for faster metabolism.

T1 sequence (Q13547 whole entry): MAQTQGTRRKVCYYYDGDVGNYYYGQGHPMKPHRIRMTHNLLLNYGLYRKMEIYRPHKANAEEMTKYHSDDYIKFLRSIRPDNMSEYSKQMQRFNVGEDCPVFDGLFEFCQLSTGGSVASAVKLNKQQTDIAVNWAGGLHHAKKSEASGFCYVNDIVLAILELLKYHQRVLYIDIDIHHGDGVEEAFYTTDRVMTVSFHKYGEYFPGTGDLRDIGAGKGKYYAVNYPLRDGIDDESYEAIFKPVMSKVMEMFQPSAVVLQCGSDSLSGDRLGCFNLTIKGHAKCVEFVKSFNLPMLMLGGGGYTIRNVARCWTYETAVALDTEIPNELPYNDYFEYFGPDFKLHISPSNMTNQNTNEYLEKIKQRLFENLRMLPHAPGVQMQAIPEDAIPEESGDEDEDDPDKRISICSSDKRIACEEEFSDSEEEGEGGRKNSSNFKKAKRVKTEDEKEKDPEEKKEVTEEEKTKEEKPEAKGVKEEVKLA

Take `O=c1ccc2ccc3occc3c2o1` [Angelicin, reference compound]: the “Benzidine positive cells (%)” value in the series with K562 cells is reported as 62 ± 8.5%.
Regarding `N.N.[Cl][Pt][Cl]` [Cisplatin, reference compound], in the series with K562 cells, the “Benzidine positive cells (%)” value is 63 ± 8.5%.
On to `NC(=O)NO` [Hydroxyurea, reference compound], for which the “Benzidine positive cells (%)” value with K562 cells was 30 ± 7.5%.
In the case of `CCC(=O)CCCCC[C@H](NC(=O)C12CCN(CC1)CC2)c1ncc(-c2cc3ccccc3nc2OC)o1` [Compound 41, (S)-N-(1-(5-(2-methoxyquinolin-3-yl)oxazol-2-yl)-7-oxononyl)quinuclidine-4-carboxamide], the EC50 in series [1] was > 1000 nM. Besides, the IC50 in the series with HDAC in Hela cells was < 100 nM. Besides, on HDAC1, the IC50 was < 100 nM. In series [2], this compound showed an AUC of 10.1 µM·h and a Cmax of 470 nM.
For `CCC(=O)CCCCC[C@@H](NC(=O)C1CN(C)C1)c1ncc(-c2cc3ccccc3nc2OC)o1` [Compound 42, (R)-N-(1-(5-(2-methoxyquinolin-3-yl)oxazol-2-yl)-7-oxononyl)-1-methylazetidine-3-carboxamide], the EC50 in series [1] is > 1000 nM. Besides, the microsomal CLint at 1 μM is 21 µL/min/mg in [3], 3 µL/min/mg in series [4] and 15 µL/min/mg in series [6]. For the same compound, the results for the IC50 with HDAC in Hela cells and on HDAC1 were 100 to 1000 nM and < 100 nM, respectively. The area under the curve (AUC) in series [5] (po 5 mg/kg) was determined as 5.93 µM·h. The Cmax in series [5] (po 5 mg/kg) is 670 nM.
As to `CCCC(=O)O` [Butyric acid, reference compound], in the series with K562 cells, the “Benzidine positive cells (%)” value turned out to be 32 ± 6.4%.
`Nc1ccn([C@@H]2O[C@H](CO)[C@@H](O)[C@@H]2O)c(=O)n1` [Cytosin arabinoside, reference compound]: in the series on K562 cells, the “Benzidine positive cells (%)” value is on record as 75 ± 5.4%.
For `CCC(=O)CCCCC[C@H](NC(=O)C1CN(C)C1)c1nnc(-c2cc3ccccc3nc2OC)o1` [Compound 52, (S)-N-(1-(5-(2-methoxyquinolin-3-yl)-1,3,4-oxadiazol-2-yl)-7-oxononyl)-1-methylazetidine-3-carboxamide], the EC50 in series [1] was > 1000 nM. Also, the intrinsic metabolic clearance (microsomal CLint) at 1 μM in series [3] is 30 µL/min/mg; in series [4], 60 µL/min/mg; in series [6], 19 µL/min/mg. The IC50 with HDAC in Hela cells is 100 to 1000 nM; on HDAC1 it was < 100 nM. In addition, the results for the area under the curve (AUC) in series [5] (po 10 mg/kg) and in series [2] were 1.75 µM·h and 5.91 µM·h, respectively. The Cmax in series [5] (po 10 mg/kg) was 630 nM; in series [2] it was 580 nM.
On to `CCC(=O)CCCCC[C@H](NC(=O)C1CN(C)C1)c1ncc(-c2cc3ccccc3[nH]c2=O)o1` [Compound 44, (S)-1-methyl-N-(7-oxo-1-(5-(2-oxo-1,2-dihydroquinolin-3-yl)oxazol-2-yl)nonyl)azetidine-3-carboxamide], for which the concentration for a half-maximal effect (EC50) in series [1] fell in the range of 100 to 1000 nM. In addition, the microsomal CLint at 1 μM was 17 µL/min/mg in series [3], 11 µL/min/mg in [4] and 11 µL/min/mg in [6]. For the same compound, the IC50 with HDAC in Hela cells and on HDAC1 was < 100 nM each time.
In the case of `CCC(=O)NO` [propionyl hydroxamate], the “increase of human γ/murine α-globin mRNA ratios” value with human γ-globin gene is 71%.
Take `Oc1ccc(C=Cc2cc(O)cc(O)c2)cc1` [Resveratrol, reference compound]: the “Benzidine positive cells (%)” value in the series on K562 cells came to 70 ± 8.5%.
Consider `CCC(=O)CCCCC[C@H](NC(=O)c1snnc1C)c1ncc(-c2cc3ccccc3nc2OC)o1` [Compound 101, (S)-N-(1-(5-(2-methoxyquinolin-3-yl)oxazol-2-yl)-7-oxononyl)-4-methyl-1,2,3-thiadiazole-5-carboxamide], for which the EC50 in series [1] was > 1000 nM. In addition, the values for the half-inhibitory concentration (IC50) in the series with HDAC in Hela cells and at HDAC1 were 100 to 1000 nM and < 100 nM, respectively.
On to `CCC(=O)CCCCC[C@H](NC(=O)CCn1ccnc1)c1ncc(-c2cc3ccccc3nc2OC)o1` [Compound 75, (S)-3-(1H-imidazol-1-yl)-N-(1-(5-(2-methoxyquinolin-3-yl)oxazol-2-yl)-7-oxononyl)propanamide], for which the EC50 in [1] is 100 to 1000 nM. Further, the IC50 in the series on HDAC in Hela cells was 100 to 1000 nM; on HDAC1, < 100 nM.
In the case of `CCC(=O)CCCCC[C@H](NC(=O)[C@@H]1CSC(=O)N1)c1ncc(-c2ccccc2)o1` [Compound 13, (R)-2-oxo-N-((S)-7-oxo-1-(5-phenyloxazol-2-yl)nonyl)thiazolidine-4-carboxamide], in [1], the concentration giving a half-maximal response (EC50) is > 1000 nM. Also, the IC50 in the series with HDAC in Hela cells was > 1000 nM; on HDAC1, < 100 nM.
For the compound `CCC(=O)CCCCC[C@H](NC(=O)Cc1c(C)[nH]c2ccc(OC)cc12)c1ncc(-c2ccccc2)o1` [Compound 4, (S)-2-(5-methoxy-2-methyl-1H-indol-3-yl)-N-(7-oxo-1-(5-phenyloxazol-2-yl)nonyl)acetamide], the EC50 in [1] was > 1000 nM. The IC50 with HDAC in Hela cells was > 1000 nM; at HDAC1, < 100 nM.
Turning to `CCC(=O)CCCCC[C@H](NC(=O)Cn1ccc(C)n1)c1ncc(-c2cc3ccccc3nc2OC)o1` [Compound 78, (S)-N-(1-(5-(2-methoxyquinolin-3-yl)oxazol-2-yl)-7-oxononyl)-2-(3-methyl-1H-pyrazol-1-yl)acetamide], the EC50 in series [1] was > 1000 nM. The IC50 is 100 to 1000 nM in the series on HDAC in Hela cells and < 100 nM on HDAC1.
Turning to `CCC(=O)CCCCC[C@H](NC(=O)c1ccn(C)n1)c1ncc(-c2cc3ccccc3nc2OC)o1` [Compound 98, (S)-N-(1-(5-(2-methoxyquinolin-3-yl)oxazol-2-yl)-7-oxononyl)-1-methyl-1H-pyrazole-3-carboxamide], the EC50 in [1] was > 1000 nM. Also, the IC50 with HDAC in Hela cells is 100 to 1000 nM; on HDAC1 it was < 100 nM.
